{"source": "patent US20090318492A1", "about": "“INDOLE COMPOUNDS HAVING C4-ACIDIC SUBSTITUENTS AND USE THEREOF AS PHOSPHOLIPASE-A2 INHIBITORS” (priority 2005, published 2009)", "key": {"[1]": {"tested_on": "LDL receptor knockout mice (B6.129S7-Ldlrtm1Her)", "experiment": "Example 11 LDL receptor knockout mice", "assay_type": "in vivo, mouse", "conditions": "low fat control diet (D12328) with vs without test article", "source_text": "Mice lack an enzyme found in humans, cholesterol ester transfer protein (CETP), which is responsible for the transfer of cholesterol from high density lipoproteins (HDL) to the ApoB-containing lipoproteins such as very low density lipoproteins (VLDL) and low density lipoproteins (LDL). Consequently, LDL cholesterol levels in wild-type mice are very low compared to those seen in humans. The low density lipoprotein receptor (LDLR) is involved with clearing LDL and lipoprotein remnants containing apoE. If the LDLR is inactivated, LDL cholesterol levels rise to levels seen in humans. On a normal rodent diet, the LDL cholesterol levels in LDLR deficient mice are elevated compared to wild-type mice. […]\nIn these studies and the accompanying figures, Diet D12328 from Research Diets is referred to as the “Low Fat” or Control diet, while Diet D12079B from Research Diets is referred to as the “Western” diet. […] The Test Article content was calculated such that ad libitum consumption by the animals would deliver doses (in mg of Test Article per Kg animal weight per day) approximating those listed in Table 6.\nAnimals were maintained on the diets for twelve weeks. Body weights were recorded weekly. […] The serum was analyzed for total cholesterol, LDL cholesterol, HDL cholesterol, and triglycerides (TG). […]"}, "[2]": {"experiment": "Example 14 toxicology, daily oral gavage for 5 consecutive days", "assay_type": "in vivo", "conditions": "mice", "source_text": "The purpose of this study was to evaluate the toxicity of indole and indole-related Test Articles when administered daily via oral gavage to mice for 5 consecutive days.\nAssessment of toxicity was based on mortality; clinical signs, body weight, food consumption, clinical pathology, and macroscopic pathology data."}}}
{"smiles": "Cc1c(C(=O)C(N)=O)c2c(OCC(=O)NS(=O)(=O)CCCC(=O)O)cccc2n1Cc1ccccc1", "note": "[ILY-IV-40, 4-[2-(3-Aminooxalyl-1-benzyl-2-methyl-1H-indol-4-yloxy)-acetylsulfamoyl]-butyric acid]", "values": [{"measurement": "effect in animals fed a low fat control diet", "setting": "[1]", "value": "No or little effect"}, {"measurement": "clinical pathology differences between vehicle control group and treated groups attributable to test article", "setting": "[2]", "value": "no differences"}]}
